The values that follow come from ChEMBL document CHEMBL4665907, “Breakthrough in Degradation of BCR-ABL Fusion Protein for the Treatment of Cancer” (ACS Med Chem Lett, 2020).

pKd: −log10 of the molar value.

Test [1] has as its target T1, Protein cereblon/Tyrosine-protein kinase ABL1/Breakpoint cluster region protein (Homo sapiens, UniProt P00519+P11274+Q96SW2). Put plainly: Protac activity at CRBN/BCR-ABL in human K562 cells assessed as induction of BCR-ABL degradation at 1 uM incubated for 24 hrs by western blot analysis relative to control. Format: cell-based.
Target sequence in this assay (P00519 whole entry, looked up, the tested form may be a part): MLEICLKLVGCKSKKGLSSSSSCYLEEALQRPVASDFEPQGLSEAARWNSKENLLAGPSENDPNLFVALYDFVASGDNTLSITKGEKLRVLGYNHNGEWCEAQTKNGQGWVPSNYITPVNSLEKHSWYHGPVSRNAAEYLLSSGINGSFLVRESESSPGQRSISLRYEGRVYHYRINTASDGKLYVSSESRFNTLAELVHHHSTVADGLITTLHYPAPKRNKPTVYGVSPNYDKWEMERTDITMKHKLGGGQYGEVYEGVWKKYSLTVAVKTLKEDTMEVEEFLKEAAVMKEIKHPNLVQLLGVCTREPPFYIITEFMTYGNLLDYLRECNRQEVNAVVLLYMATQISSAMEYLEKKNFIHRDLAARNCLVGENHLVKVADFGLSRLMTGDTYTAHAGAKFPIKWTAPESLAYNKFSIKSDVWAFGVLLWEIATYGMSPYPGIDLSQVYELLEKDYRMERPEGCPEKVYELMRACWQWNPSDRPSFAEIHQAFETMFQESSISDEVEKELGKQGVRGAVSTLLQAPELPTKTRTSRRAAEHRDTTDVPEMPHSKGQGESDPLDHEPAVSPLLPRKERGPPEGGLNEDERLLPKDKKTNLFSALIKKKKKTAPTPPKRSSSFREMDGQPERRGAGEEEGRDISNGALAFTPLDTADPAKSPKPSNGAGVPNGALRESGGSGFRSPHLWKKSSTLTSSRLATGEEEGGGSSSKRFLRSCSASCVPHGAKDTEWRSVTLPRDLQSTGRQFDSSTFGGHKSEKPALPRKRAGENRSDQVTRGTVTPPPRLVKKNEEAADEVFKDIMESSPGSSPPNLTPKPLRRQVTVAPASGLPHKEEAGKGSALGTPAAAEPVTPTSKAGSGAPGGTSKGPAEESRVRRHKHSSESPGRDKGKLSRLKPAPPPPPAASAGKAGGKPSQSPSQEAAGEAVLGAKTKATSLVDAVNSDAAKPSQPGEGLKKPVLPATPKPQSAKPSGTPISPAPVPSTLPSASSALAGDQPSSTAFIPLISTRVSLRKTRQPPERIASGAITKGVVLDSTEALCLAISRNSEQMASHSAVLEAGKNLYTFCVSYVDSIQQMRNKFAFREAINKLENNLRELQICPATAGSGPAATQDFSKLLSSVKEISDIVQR
Target sequence in this assay (P11274 whole entry, looked up, the tested form may be a part): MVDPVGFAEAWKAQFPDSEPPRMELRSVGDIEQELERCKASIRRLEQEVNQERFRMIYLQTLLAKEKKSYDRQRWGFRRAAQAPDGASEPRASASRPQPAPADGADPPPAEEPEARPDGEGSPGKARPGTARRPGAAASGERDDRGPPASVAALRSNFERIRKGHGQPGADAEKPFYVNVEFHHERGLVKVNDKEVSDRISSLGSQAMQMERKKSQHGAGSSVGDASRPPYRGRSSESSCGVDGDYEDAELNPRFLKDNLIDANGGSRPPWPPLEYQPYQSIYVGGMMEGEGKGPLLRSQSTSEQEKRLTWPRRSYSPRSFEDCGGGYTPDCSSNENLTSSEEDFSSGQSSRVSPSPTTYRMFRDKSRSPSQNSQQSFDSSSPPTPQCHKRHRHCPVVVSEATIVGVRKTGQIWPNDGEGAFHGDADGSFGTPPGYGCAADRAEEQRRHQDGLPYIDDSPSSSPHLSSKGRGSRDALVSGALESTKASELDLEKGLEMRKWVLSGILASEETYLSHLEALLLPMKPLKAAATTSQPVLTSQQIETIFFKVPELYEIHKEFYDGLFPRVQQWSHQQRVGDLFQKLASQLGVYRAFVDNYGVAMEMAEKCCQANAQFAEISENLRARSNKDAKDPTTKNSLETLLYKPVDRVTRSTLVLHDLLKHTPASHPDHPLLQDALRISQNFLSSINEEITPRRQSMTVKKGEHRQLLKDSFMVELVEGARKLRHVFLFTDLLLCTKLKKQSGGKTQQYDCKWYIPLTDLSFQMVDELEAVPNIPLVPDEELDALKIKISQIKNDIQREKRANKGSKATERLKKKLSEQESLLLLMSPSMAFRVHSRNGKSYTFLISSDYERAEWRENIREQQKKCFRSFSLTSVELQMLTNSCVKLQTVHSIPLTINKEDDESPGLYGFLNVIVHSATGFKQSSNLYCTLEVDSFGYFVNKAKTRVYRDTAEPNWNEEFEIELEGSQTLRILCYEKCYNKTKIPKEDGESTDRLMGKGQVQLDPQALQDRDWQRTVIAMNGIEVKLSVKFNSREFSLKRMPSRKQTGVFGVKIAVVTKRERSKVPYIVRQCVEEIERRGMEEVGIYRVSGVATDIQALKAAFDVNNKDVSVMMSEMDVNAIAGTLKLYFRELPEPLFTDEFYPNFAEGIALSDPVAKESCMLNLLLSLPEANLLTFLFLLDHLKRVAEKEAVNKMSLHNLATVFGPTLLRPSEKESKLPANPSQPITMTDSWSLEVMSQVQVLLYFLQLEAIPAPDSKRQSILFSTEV
Target sequence in this assay (Q96SW2 whole entry, looked up, the tested form may be a part): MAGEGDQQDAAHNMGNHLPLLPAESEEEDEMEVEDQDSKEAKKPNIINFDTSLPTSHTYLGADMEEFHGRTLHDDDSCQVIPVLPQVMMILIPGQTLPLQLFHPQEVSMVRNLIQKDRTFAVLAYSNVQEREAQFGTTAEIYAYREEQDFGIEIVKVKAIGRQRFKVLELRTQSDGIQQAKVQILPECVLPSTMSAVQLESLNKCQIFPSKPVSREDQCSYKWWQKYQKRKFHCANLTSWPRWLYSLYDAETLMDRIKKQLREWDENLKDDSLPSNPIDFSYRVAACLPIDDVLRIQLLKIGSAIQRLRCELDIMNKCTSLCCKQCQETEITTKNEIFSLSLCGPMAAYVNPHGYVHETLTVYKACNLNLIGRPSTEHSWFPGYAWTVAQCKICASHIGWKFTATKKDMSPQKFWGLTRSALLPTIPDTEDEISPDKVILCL
The target in test [2] is T1, Protein cereblon/Tyrosine-protein kinase ABL1/Breakpoint cluster region protein. Put plainly: Protac binding affinity at CRBN/BCR-ABL (unknown origin) assessed as binding to phosphorylated c-ABL kinase domain by Kinomescan assay. The test is classed as protein assay.
Target sequence in this assay (P00519 whole entry, the tested form may be a part): as the sequence (P00519 whole entry, looked up, the tested form may be a part) above
Target sequence in this assay (P11274 whole entry, the tested form may be a part): as the sequence (P11274 whole entry, looked up, the tested form may be a part) above
Target sequence in this assay (Q96SW2 whole entry, the tested form may be a part): as the sequence (Q96SW2 whole entry, looked up, the tested form may be a part) above
For test [3] the target is unchanged. Put plainly: Protac activity at CRBN/BCR-ABL in human K562 cells assessed as induction of BCR-ABL degradation at 2.5 uM incubated for 24 hrs by western blot analysis relative to control. The test is classed as cell-based. In general terms: A western blot detects proteins with antibodies after separation by electrophoresis.
Target sequence in this assay (P00519 whole entry, looked up, the tested form may be a part): as the sequence (P00519 whole entry, looked up, the tested form may be a part) above
Target sequence in this assay (P11274 whole entry, looked up, the tested form may be a part): as the sequence (P11274 whole entry, looked up, the tested form may be a part) above
Target sequence in this assay (Q96SW2 whole entry, looked up, the tested form may be a part): as the sequence (Q96SW2 whole entry, looked up, the tested form may be a part) above
Test [4] has the same target. Put plainly: Protac binding affinity at CRBN/BCR-ABL (unknown origin) assessed as binding to non phosphorylated c-ABL kinase domain by Kinomescan assay. Format: protein assay.
Target sequence in this assay (P00519 whole entry, the tested form may be a part): as the sequence (P00519 whole entry, looked up, the tested form may be a part) above
Target sequence in this assay (P11274 whole entry, the tested form may be a part): as the sequence (P11274 whole entry, looked up, the tested form may be a part) above
Target sequence in this assay (Q96SW2 whole entry, the tested form may be a part): as the sequence (Q96SW2 whole entry, looked up, the tested form may be a part) above
Test [5] addresses T2, von Hippel-Lindau disease tumor suppressor/Tyrosine-protein kinase ABL1/Breakpoint cluster region protein (Homo sapiens, UniProt P00519+P11274+P40337). Put plainly: Protac binding affinity at VHL/BCR-ABL (unknown origin) assessed as binding to phosphorylated c-ABL kinase domain by Kinomescan assay. Format: protein assay.
Test [6] has as its target T2, von Hippel-Lindau disease tumor suppressor/Tyrosine-protein kinase ABL1/Breakpoint cluster region protein. Put plainly: Protac binding affinity at VHL/BCR-ABL (unknown origin) assessed as binding to non phosphorylated c-ABL kinase domain by Kinomescan assay. The test is classed as protein assay.

T2 sequence (P00519 whole entry, the tested form may be a part): as the sequence (P00519 whole entry, looked up, the tested form may be a part) above
T2 sequence (P11274 whole entry, the tested form may be a part): as the sequence (P11274 whole entry, looked up, the tested form may be a part) above
T2 sequence (P40337 whole entry, the tested form may be a part): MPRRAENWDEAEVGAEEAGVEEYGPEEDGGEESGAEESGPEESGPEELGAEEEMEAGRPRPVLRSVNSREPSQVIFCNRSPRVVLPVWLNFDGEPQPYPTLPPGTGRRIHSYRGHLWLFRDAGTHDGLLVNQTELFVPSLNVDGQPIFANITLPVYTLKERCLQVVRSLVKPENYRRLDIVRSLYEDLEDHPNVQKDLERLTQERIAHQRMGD

With `COc1cc(Nc2c(C#N)cnc3cc(OCCCN4CCN(CCCCCCOCCOCCOCCCCCC(=O)Nc5cccc6c5C(=O)N(C5CCC(=O)NC5=O)C6=O)CC4)c(OC)cc23)c(Cl)cc1Cl` (stereo not drawn), the Activity in test [1] is more than 60%; in test [3], more than 80%. Moreover, the pKd in test [2] was 9.26; in test [4], 9.04.

Consider `Cc1nc(Nc2ncc(C(=O)Nc3c(C)cccc3Cl)s2)cc(N2CCN(CCCCCCOCCOCCOCCOCCOCCOCC(=O)N[C@H](C(=O)N3C[C@H](O)C[C@H]3C(=O)NCc3ccc(-c4scnc4C)cc3)C(C)(C)C)CC2)n1`, for which the pKd in test [5] is 10.06; in test [6], 9.55.

As to `COc1cc(Nc2c(C#N)cnc3cc(OCCCN4CCN(CCCCCCOCCOCCOCCOCCOCCOCC(=O)N[C@H](C(=O)N5C[C@H](O)C[C@H]5C(=O)NCc5ccc(-c6scnc6C)cc5)C(C)(C)C)CC4)c(OC)cc23)c(Cl)cc1Cl`, the pKd in test [5] was 9.52; in test [6], 9.24.

As for `COc1cc(Nc2c(C#N)cnc3cc(OCCCN4CCN(CCCCCCOCCOCC(=O)Nc5cccc6c5C(=O)N(C5CCC(=O)NC5=O)C6=O)CC4)c(OC)cc23)c(Cl)cc1Cl` (stereo not drawn), the Activity in test [1] was more than 60%; in test [3], more than 80%. Moreover, the pKd in test [2] was 9.96; in test [4], 9.55.

As to `COc1cc(Nc2c(C#N)cnc3cc(OCCCN4CCN(CCCCCCOCCOCC(=O)N[C@H](C(=O)N5C[C@H](O)C[C@H]5C(=O)NCc5ccc(-c6scnc6C)cc5)C(C)(C)C)CC4)c(OC)cc23)c(Cl)cc1Cl`, the figures for the negative logarithm of the Kd (pKd) in test [5] and in test [6] were 9.17 and 8.89, respectively.

With `Cc1nc(Nc2ncc(C(=O)Nc3c(C)cccc3Cl)s2)cc(N2CCN(CCCCCCOCCOCC(=O)N[C@H](C(=O)N3C[C@H](O)C[C@H]3C(=O)NCc3ccc(-c4scnc4C)cc3)C(C)(C)C)CC2)n1`, the pKd in test [5] was 9.68; in test [6], 9.44.

As for `Cc1nc(Nc2ncc(C(=O)Nc3c(C)cccc3Cl)s2)cc(N2CCN(CCCCCCOCCOCCOCCOCCOCCOCC(=O)Nc3cccc4c3C(=O)N(C3CCC(=O)NC3=O)C4=O)CC2)n1` (stereo not drawn), the results for the Activity in test [1] and in test [3] were more than 60% and more than 80%, respectively. Besides, the pKd is 9.64 in test [2] and 9.59 in test [4].

Consider `COc1cc(Nc2c(C#N)cnc3cc(OCCCN4CCN(CCCCCCOCCOCCOCCOCCOCCOCC(=O)Nc5cccc6c5C(=O)N(C5CCC(=O)NC5=O)C6=O)CC4)c(OC)cc23)c(Cl)cc1Cl` (stereo not drawn), for which the Activity is more than 60% in test [1] and more than 80% in test [3]. For the same compound, the pKd is 9.89 in test [2] and 9.42 in test [4].

Turning to `Cc1nc(Nc2ncc(C(=O)Nc3c(C)cccc3Cl)s2)cc(N2CCN(CCCCCCOCCOCCOCCCCCC(=O)N[C@H](C(=O)N3C[C@H](O)C[C@H]3C(=O)NCc3ccc(-c4scnc4C)cc3)C(C)(C)C)CC2)n1`, the pKd in test [5] was 9.33; in test [6], 9.04.

For the compound `Cc1nc(Nc2ncc(C(=O)Nc3c(C)cccc3Cl)s2)cc(N2CCN(CCCCCCOCCOCCOCCCCCC(=O)Nc3cccc4c3C(=O)N(C3CCC(=O)NC3=O)C4=O)CC2)n1` (stereo not drawn), the Activity was more than 60% in test [1] and more than 80% in test [3].

As usually defined, the pKd is the negative decadic logarithm of the Kd, by convention in mol/L.
